Assay results from patent US20210338715A1, “PHARMACEUTICAL COMPOSITION FOR THE TREATMENT OF COVID-19” (RADINOR, LLC, priority 2020, published 2021).

Experiments:
[1] = Side effects of systemic therapeutic use; type: in vivo, human; conditions: systemic therapeutic use in the context of the invention
Source text: In line with the reaction kinetic knowledge from the topical application of ClO2 solutions by Noszticzius et al., it was possible to confirm in the course of the present invention that, contrary to the earlier fears of parts of the professional world, a systemic therapeutic use of reactive oxidative species such as ClO2 need not in any way be accompanied by undesirable or even damaging effects.

coronavirus = conditions: cited from earlier work
human coronavirus = conditions: cited from earlier work
[2] = humans; intake over a period of 14 days; cited from earlier work

[O][Cl+][O-] [chlorine dioxide]
serious side effects or deaths [1]: no such effects have come to light | effectiveness against coronavirus (coronavirus): effective against coronavirus | effectiveness against human coronavirus (human coronavirus): effective against human coronavirus | lethal dose LD50 [2]: 292 mg per kilogram of body weight per day
